Data as given in publication PMC2546511 (Journal of Molecular Biology, 2007).

Target: FliI ATPase (FliI^WT) (Salmonella enterica, UniProt P26465)
Details: in the presence of phospholipids; triplicate assays

Chain of FliI ATPase (FliI^WT) (P26465 whole entry): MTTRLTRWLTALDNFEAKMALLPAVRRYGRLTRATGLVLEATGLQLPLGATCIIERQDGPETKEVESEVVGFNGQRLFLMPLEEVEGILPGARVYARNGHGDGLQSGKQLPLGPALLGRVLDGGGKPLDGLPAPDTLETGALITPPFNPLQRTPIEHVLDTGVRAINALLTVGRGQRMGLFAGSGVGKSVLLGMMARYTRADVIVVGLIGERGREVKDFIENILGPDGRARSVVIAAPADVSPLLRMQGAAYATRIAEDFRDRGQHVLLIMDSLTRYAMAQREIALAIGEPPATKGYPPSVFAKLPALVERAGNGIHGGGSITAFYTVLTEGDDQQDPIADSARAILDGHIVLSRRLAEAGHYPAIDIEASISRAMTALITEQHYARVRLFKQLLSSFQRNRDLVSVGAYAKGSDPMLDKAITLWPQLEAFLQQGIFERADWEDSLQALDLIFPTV

For Nc1ncnc2c1ncn2[C@@H]1O[C@H](COP(=O)(O)OP(=O)(O)OP(=O)(O)O)[C@@H](O)[C@H]1O [ATP], the Km was 1 ± 15% mM.
